These results are taken from PMC4145316, “Cytotoxic and Apoptosis-Inducing Activity of Triterpene Glycosides from Holothuria scabra and Cucumaria frondosa against HepG2 Cells” (Marine Drugs, 2014).

For assay [1], the system named is HepG2 cells. The experiment in a line: HepG2 cell viability, MTT, 6 h and 12 h. In kind it is cell-based, human. As to the method: To determine the effects of 1 on the viability of HepG2 cell, the cells were cultured with 1 at different concentrations for 6 h and 12 h, and cell viability was measured using MTT assay.
Figure 2 Effect of 1 on cell viability of HepG2 cells. HepG2 cells were treated with the various concentrations of 1 for 6 and 12 h, and cell viability was measured using the MTT assay. The values are presented as means ± SD (n = 5).
The effect of compounds 1–13 on the viability of HepG2, HeLa, K562 and HL-7702 cells was determined by MIT assay as described previously. Briefly, the tumor and normal cells were seeded at 1 × 10^4 cells/well in a 96-well microtiter plate and incubated at 37 °C in a humidified atmosphere with 5% CO2. After 24 h, compounds 1–13, the positive drug CDDP or RPMI-1640 medium were added into each well, and the plates were incubated at 37 °C for the indicated time. Each concentration was repeated four wells. 50 μL of MTT solution (2 mg/mL) was added to each well 4 h before incubation end, and incubated further for 4 h. The plates were centrifuged (1400× g, 5 min) and the untransformed MTT was removed carefully by pipetting. To each well, 150 μL of DMSO was added and the absorbance was evaluated in an ELISA reader at 570 nm after 15 min. The inhibitory rates and 50% inhibitory concentrations (IC50) values towards cell viability were calculated by NDST software. Each test was performed in triplicate.

The subject of assay [2] is Bcl-2 and Bax mRNA in HepG2 cells. Description: RT-PCR, Bcl-2/Bax mRNA expression ratio. Format: cell-based, human. To be noted: time- and concentration-dependent. The text has this: The Bcl-2 family members can alter the permeability of mitochondrial membrane, and release cytochrome c or activate caspase cascade. There are two classes of regulatory proteins in the Bcl-2 family that have opposite effects on apoptosis: The anti-apoptotic members (Bcl-2 and Bcl-XL) protect cells against some forms of apoptosis, whereas the pro-apoptotic members (Bax and Bcl-xS) promote programmed cell death. As decrease of the ratio between anti-apoptotic gene Bcl-2 and pro-apoptotic gene Bax mRNA expression is widely considered as a hallmark of apoptosis, the expression level of Bcl-2 and Bax mRNA in HepG2 cells were first detected.
Figure 5 Effect of 1 on the ratio of expression level between Bcl-2 and Bax mRNA in HepG2 cells. HepG2 cells were incubated with 1 at the various concentrations for the different time. The mRNA expression levels of β-actin, Bcl-2, and Bax were detected by RT-PCR using specific primers. The values are presented as means ± SD (n = 3). […]
Total RNA was extracted with TRIzol reagent (Invitrogen, Grand Island, NY, USA) according to the manufacturer’s instructions, and reverse transcription was performed as previously. […] Semi-quantitative RT-PCR was performed using β-actin as an internal control to normalize gene expression for the PCR templates. […] The size of the amplified fragments was determined by comparison with a standard DNA marker.

Assay [3] concerns Caspase-3, Caspase-8 and Caspase-9 mRNA in HepG2 cells. The experiment in a line: RT-PCR, Caspase-3, Caspase-8 and Caspase-9 mRNA expression. Format: cell-based, human. An excerpt: Caspases play an important role in cell apoptosis. Activation of caspase appears to be directly responsible for many molecular and structural changes in apoptosis. The caspase-dependent process is associated with two pathways of anticancer drug-induced apoptosis, the extrinsic (death receptor) pathway and the intrinsic (mitochondrial) pathway. The extrinsic pathway is initiated by death ligands, such as FasL, leading to cleavage of pro-Caspase-8 to its active form, which subsequently activates downstream effectors such as Caspase-3. The intrinsic pathway is characterized by mitochondria dysfunction, resulting in the reduction of mitochondrial transmembrane potentials, mitochondrial translocation of the pro-apoptotic Bax protein, cytochrome c release and activation of downstream effector caspases such as Caspase-9 [39, 40]. Caspase-3 is one of the downstream effectors of the caspase family, and is considered to involve both the mitochondrial apoptotic pathway and the death receptor pathway. […]
Figure 6 Effects of 1 on the mRNA expression level of Caspase-3, Caspase-8 and Caspase-9 in HepG2 cells. […] The mRNA expression levels of β-actin, Caspase-3, Caspase-8 and Caspase-9 were detected by RT-PCR using specific primers. […]
Total RNA was extracted with TRIzol reagent (Invitrogen, Grand Island, NY, USA) according to the manufacturer’s instructions, and reverse transcription was performed as previously. […] Semi-quantitative RT-PCR was performed using β-actin as an internal control to normalize gene expression for the PCR templates. The PCR products were analyzed by electrophoresis on a 1.5% agarose gel containing goldview (5 μL/100 mL), and the amplified bands were visualized and photographed using JS-680B Gel Documentation and Analysis System (Shanghai Peiqing Science and Technology Co., Ltd., Shanghai, China). The size of the amplified fragments was determined by comparison with a standard DNA marker.

Assay [4] has as its system Top2a. Also noted: method as in PMID 19773249. The note with it: interference in DNA binding, impairment of Top2-mediated DNA cleavage and relegation; cited from earlier work.
Assay [5] deals with human gastric cancer MKN-45 cells. The note with it: read-out: IC50 against MKN-45 cells; cited from earlier work.
Setting [6] is: no difference among concentrations at 2 h.

Consider `COC1C(O)C(CO)OC(OC2C(O)C(CO)OC(OC3C(C)OC(OC4C(OC5CCC6(C)C7=CC(O)C89C(=O)OC(C)(CCCC(C)C)C8(O)CCC9(C)C7CCC6C5(C)C)OCC(OS(=O)(=O)O)C4O)C(O)C3O)C2O)C1O.[Na+]` (stereo not drawn) [Echinoside A (1), Echinoside A], for which, in assay [1] (2.25 μg/mL), the “cell viability of HepG2 cells at 2.25 μg/mL” value was “hardly influenced cell viability”. In assay [1] (3 μg/mL), the “cell viability of HepG2 cells at 3 μg/mL” value is reported as “completely inhibited”. Besides, the “effective concentration range for inhibiting survival of HepG2 cells” value in assay [1] (MTT) is listed as 2.25−3 μg/mL. Besides, the “ratio of Bcl-2/Bax mRNA expression” value in assay [2] is on record as “significantly decreased”. Besides, in assay [3] (setting [6]), the “expression level of Caspase-8 mRNA” value is on record as “significantly up-regulated” and the “expression level of Caspase-9 mRNA” value is listed as “significantly up-regulated”. In addition, the “expression level of Caspase-3 mRNA” value in assay [3] (time- and dose-dependent) is “markedly up-regulated”. Also, the Top2 inhibition entry in assay [4] is given as “non-intercalative Top2 inhibitor”. Besides, the IC50 in assay [5] was 1860 nM.

The IC50 is the concentration at which inhibition is half-maximal.
